Laboratory results published in patent US6583180B2, “Glucocorticoid receptor modulators” (Abbott Laboratories, priority 2001, dated 2003).

Legend:
[1] = biological target: T1, progesterone receptor (PR) (Homo sapiens, UniProt P06401); assay: Radioligand binding assay for progesterone receptor (similar protocol);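 further: radioligand binding measured with cytosol preparations containing the human progesterone receptor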
T1 sequence (P06401 1-933): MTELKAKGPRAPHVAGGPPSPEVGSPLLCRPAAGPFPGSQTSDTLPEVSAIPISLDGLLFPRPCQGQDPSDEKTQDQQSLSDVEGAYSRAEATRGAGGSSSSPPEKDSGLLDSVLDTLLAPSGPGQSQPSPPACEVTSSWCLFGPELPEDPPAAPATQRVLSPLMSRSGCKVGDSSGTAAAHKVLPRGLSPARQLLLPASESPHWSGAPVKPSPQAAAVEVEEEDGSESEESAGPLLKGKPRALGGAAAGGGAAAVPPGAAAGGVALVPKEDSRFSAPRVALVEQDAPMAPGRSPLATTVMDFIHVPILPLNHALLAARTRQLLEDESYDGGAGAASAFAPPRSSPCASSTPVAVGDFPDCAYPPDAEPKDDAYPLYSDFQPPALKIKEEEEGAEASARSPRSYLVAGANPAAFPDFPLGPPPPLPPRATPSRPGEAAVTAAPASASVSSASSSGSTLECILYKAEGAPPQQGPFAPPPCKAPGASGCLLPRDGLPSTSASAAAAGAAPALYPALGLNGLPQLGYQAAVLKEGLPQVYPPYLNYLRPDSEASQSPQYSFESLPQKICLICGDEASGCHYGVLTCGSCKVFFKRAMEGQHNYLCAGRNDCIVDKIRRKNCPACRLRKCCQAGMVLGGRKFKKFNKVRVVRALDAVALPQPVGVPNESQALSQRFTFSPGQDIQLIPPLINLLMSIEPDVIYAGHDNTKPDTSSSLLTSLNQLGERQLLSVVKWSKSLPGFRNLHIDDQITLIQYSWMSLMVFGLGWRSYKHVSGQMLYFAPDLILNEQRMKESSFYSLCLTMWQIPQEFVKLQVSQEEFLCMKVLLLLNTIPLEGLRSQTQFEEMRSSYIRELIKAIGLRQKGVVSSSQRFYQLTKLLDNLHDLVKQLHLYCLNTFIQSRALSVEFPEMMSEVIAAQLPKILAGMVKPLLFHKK
From the text: Methods for Radiolipand Binding Studies with Human Glucocorticoid and Progesterone Receptor Cytosol

[2] = biological target: T2, Human glucocorticoid receptors (Homo sapiens, UniProt P04150); assay: Radioligand filter binding assay, displacement of 3[H]-dexamethasone from hGR; conditions: read-out: GR Binding (% Inhibition at 1.7 μM)
T2 construct: made in house; host or cells: Sf9 insect cells, recombinant baculovirus (BAC-TO-BAC)
T2 sequence (P04150 1-777): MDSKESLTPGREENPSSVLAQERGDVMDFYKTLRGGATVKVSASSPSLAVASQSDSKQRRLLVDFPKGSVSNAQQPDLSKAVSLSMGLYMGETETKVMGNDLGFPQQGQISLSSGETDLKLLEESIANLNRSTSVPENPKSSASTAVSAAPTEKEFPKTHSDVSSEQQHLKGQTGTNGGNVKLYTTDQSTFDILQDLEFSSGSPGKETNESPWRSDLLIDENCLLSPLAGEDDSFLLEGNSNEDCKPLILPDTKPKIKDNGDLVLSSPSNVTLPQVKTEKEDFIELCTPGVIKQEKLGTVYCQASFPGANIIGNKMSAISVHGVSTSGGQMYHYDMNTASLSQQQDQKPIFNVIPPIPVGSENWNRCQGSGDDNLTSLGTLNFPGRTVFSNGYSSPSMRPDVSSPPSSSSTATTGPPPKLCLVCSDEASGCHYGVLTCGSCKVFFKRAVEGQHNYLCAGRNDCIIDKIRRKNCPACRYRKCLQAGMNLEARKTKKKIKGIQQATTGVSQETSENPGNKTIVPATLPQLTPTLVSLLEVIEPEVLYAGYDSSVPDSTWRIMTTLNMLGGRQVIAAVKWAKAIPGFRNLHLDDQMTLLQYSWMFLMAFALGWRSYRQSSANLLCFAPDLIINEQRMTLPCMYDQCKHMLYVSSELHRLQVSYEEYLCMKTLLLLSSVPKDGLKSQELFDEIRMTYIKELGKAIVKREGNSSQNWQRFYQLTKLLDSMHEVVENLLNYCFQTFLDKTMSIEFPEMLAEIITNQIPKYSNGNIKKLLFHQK
How it was run: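 Recombinant hGR extract from baculovirus-infected Sf9 cells (final ~1 nM receptor) incubated with ³H-dexamethasone and test compound dilutions in duplicate, EDTA/phosphate pH 8 buffer with MTG, overnight (15-20 h) at +4° C. Bound label collected on PEI-treated GF/B filters and scintillation-counted; IC50 from four-parameter fit of corrected cpm.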

SMILES | IC50 [1] [nM] | inhibition at 1.7 µM [2] [%]
CCOC(=O)/C=C/c1c(NS(C)(=O)=O)cccc1N(Cc1ccccc1)Cc1ccccc1 [Example 40, N-[3-(dibenzylamino)-2-((E)-3-ethoxy-3-oxo-1-propenyl)phenyl]methanesulfonamide] | > 10000 | 87
CCCOc1ccc(CN(Cc2ccc(F)cc2F)c2cccc(NS(C)(=O)=O)c2C)cc1 [Example 43, N-{3-[(2,4-difluorobenzyl)(4-propoxybenzyl)amino]-2-methylphenyl}methanesulfonamide] | 660 | 91.1
COCCOc1cc(Oc2ccc(CN(Cc3ccccc3)c3cccc(NS(C)(=O)=O)c3C)cc2)ccc1CCCC(=O)O [Example 63] | 648 | 96.2
CCOC(=O)CCCc1ccc(Oc2ccc(CN(Cc3ccccc3)c3cccc(NS(C)(=O)=O)c3C)cc2)cc1 [Example 64, ethyl 4-(4-{4-[(benzyl{2-methyl-3-[(methylsulfonyl)amino]phenyl}amino)methyl]phenoxy}phenyl)butanoate] | 1180 | 93.5
Cc1c(NS(C)(=O)=O)cccc1N(Cc1ccccc1)Cc1ccc(Oc2cccc(CCCO)c2)cc1 [Example 65, N-[3-(benzyl{4-[3-(3-hydroxypropyl)phenoxy]benzyl}amino)-2-methylphenyl]methanesulfonamide] | 633 | 94
COC(=O)c1cccc(Oc2ccc(CN(Cc3ccc(F)cc3F)c3cccc(NS(C)(=O)=O)c3C)cc2)c1 [Example 67, methyl 3-{4-[((2,4-difluorobenzyl){2-methyl-3-[(methylsulfonyl)amino]phenyl}amino)methyl]phenoxy}benzoate] | 667 | 89
COCCOCCOc1cccc(Oc2ccc(CN(Cc3ccccc3)c3cccc(NS(C)(=O)=O)c3C)cc2)c1 [Example 69, N-{3-[benzyl(4-{3-[2-(2-methoxyethoxy)ethoxy]phenoxy}benzyl)amino]-2-methylphenyl}methanesulfonamide] | 122 | 86.9
Cc1c(NS(C)(=O)=O)cccc1N(Cc1ccccc1)Cc1ccc(Oc2cccc(OCCCNS(C)(=O)=O)c2)cc1 [Example 71, N-[3-(3-{4-[(benzyl{2-methyl-3-[(methylsulfonyl)amino]phenyl}amino)methyl]phenoxy}phenoxy)propyl]methanesulfonamid] | 537 | 95.2
Cc1c(NS(C)(=O)=O)cccc1N(Cc1ccccc1)Cc1ccc(Oc2cccc(OCCCN(C)C)c2)cc1 [Example 72, N-{3-[benzyl(4-{3-[3-(dimethylamino)propoxy]phenoxy}benzyl)amino]-2-methylphenyl}methanesulfonamide] | 462 | 92
Cc1c(NS(C)(=O)=O)cccc1N(Cc1ccc(Oc2ccc(CCCC(=O)NCCCN3CCCC3=O)cc2)cc1)Cc1ccc(F)cc1F [Example 75, 4-(4-{4-[((2,4-difluorobenzyl){2-methyl-3-[(methylsulfonyl)amino]phenyl}amino)methyl]phenoxy}phenyl)-N-[3-(2-oxopyrrolidin-1-yl)propyl]butanamide] | 2350 | 98.3
Cc1c(NS(C)(=O)=O)cccc1N(Cc1ccc(Oc2ccc(CCC(=O)O)cc2)cc1)Cc1ccccc1Br [Example 76, 3-(4-{4-[((2-bromobenzyl){2-methyl-3-[(methylsulfonyl)amino]phenyl}amino)methyl]phenoxy}phenyl)propanoic acid] | 149 | 96.5
Cc1c(NS(C)(=O)=O)cccc1N(Cc1ccccc1)Cc1ccc(Oc2ccc(Br)c(OCC(=O)O)c2)cc1 [Example 77, (5-{4-[(benzyl{2-methyl-3-[(methylsulfonyl)amino]phenyl}amino)methyl]phenoxy}-2-bromophenoxy)acetic acid] | 249 | 97.1
Cc1c(NS(C)(=O)=O)cccc1N(Cc1ccccc1)Cc1ccc(Oc2cccc(OCCNC(=O)CCC(=O)O)c2)cc1 [Example 78, 4-{[2-(3-{4-[(benzyl{2-methyl-3-[(methylsulfonyl)amino]phenyl}amino)methyl]phenoxy}phenoxy)ethyl]amino}-4-oxobutanoic acid] | > 1000 | 97.3

Now from value to compound:

IC50 [1] [nM] | inhibition at 1.7 µM [2] [%] | SMILES
1100 | 97.2 | Cc1c(NS(C)(=O)=O)cccc1N(Cc1ccccc1)Cc1ccc(Oc2cccc(OCCNC(=O)CCCC(=O)O)c2)cc1 [Example 79, 5-{[2-(3-{4-[(benzyl{2-methyl-3-[(methylsulfonyl)amino]phenyl}amino)methyl]phenoxy}phenoxy)ethyl]amino}-5-oxopentanoic acid]
622 | 96.2 | Cc1c(NS(C)(=O)=O)cccc1N(Cc1ccccc1)Cc1ccc(Oc2cccc(OCCNS(C)(=O)=O)c2)cc1 [Example 81, N-[2-(3-{4-[(benzyl{2-methyl-3-[(methylsulfonyl)amino]phenyl}amino)methyl]phenoxy}phenoxy)ethyl]methanesulfonamide]
177 | 98.1 | Cc1c(NS(C)(=O)=O)cccc1N(Cc1ccc(Oc2cccc(OCC(=O)O)c2)cc1)Cc1ccc(Cl)cc1F [Example 83, (3-{4-[((4-chloro-2-fluorobenzyl){2-methyl-3-[(methylsulfonyl)amino]phenyl}amino)methyl]phenoxy}phenoxy)acetic acid]
468 | 97.9 | Cc1c(NS(C)(=O)=O)cccc1N(Cc1ccc(Oc2ccc(CCC(=O)O)cc2)cc1)Cc1ccccc1F [Example 84, 3-(4-{4-[((2-fluorobenzyl){2-methyl-3-[(methylsulfonyl)amino]phenyl}amino)methyl]phenoxy}phenyl)propanoic acid]
351 | 96.9 | Cc1c(NS(C)(=O)=O)cccc1N(Cc1ccc(F)cc1)Cc1ccc(Oc2ccc(CCC(=O)O)cc2)cc1 [Example 85, 3-(4-{4-[((4-fluorobenzyl){2-methyl-3-[(methylsulfonyl)amino]phenyl}amino)methyl]phenoxy}phenyl)propanoic acid]
1030 | 92.9 | Cc1c(NS(C)(=O)=O)cccc1N(Cc1ccccc1)Cc1ccc(Oc2ccc(CCCCO)cc2)cc1 [Example 101, N-[3-(benzyl{4-[4-(4-hydroxybutyl)phenoxy]benzyl}amino)-2-methylphenyl]methanesulfonamide]
583 | 95.7 | Cc1c(NS(C)(=O)=O)cccc1N(Cc1ccccc1)Cc1ccc(Oc2ccc(CCC(=O)NCC(=O)O)cc2)cc1 [Example 104, N-[3-(4-{4-[(benzyl{2-methyl-3-[(methylsulfonyl)amino]phenyl}amino)methyl]phenoxy}phenyl)propanoyl]glycine]
685 | 96.2 | Cc1c(NS(C)(=O)=O)cccc1N(Cc1ccccc1)Cc1ccc(Oc2ccc(CCC(=O)NCCC(=O)O)cc2)cc1 [Example 105, N-[3-(4-{4-[(benzyl{2-methyl-3-[(methylsulfonyl)amino]phenyl}amino)methyl]phenoxy}phenyl)propanoyl]-beta-alanine]
